Data reported in patent publication US20200288710A1, “SUBSTITUTED SULPHONAMIDES FOR CONTROLLING ANIMAL PESTS” (BAYER CROPSCIENCE AKTIENGESELLSCHAFT, priority 2016, published 2020).

Key:
Type in all cases: in vivo
Myzus persicae [1] = test: Myzus persicae spray test (Chinese cabbage leaf discs); conditions: foliar, 120 h, 500 g/ha, after 5-6 days, read-out: efficacy
Summary of the method: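 Chinese cabbage leaf discs infested with all stages of green peach aphid were sprayed with compound formulated in acetone/DMF and emulsifier-containing water. Efficacy in % was scored after 5-6 days, with 100% meaning all aphids killed and 0% none killed.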

Myzus persicae [2] = test: Myzus persicae oral test; conditions: 120 h, 20 ppm, oral uptake, after 5 days, read-out: efficacy
Summary of the method: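 Compound dissolved in acetone, diluted in water, then mixed 50:150 μl with IPL41 insect medium (33%+15% sugar). Mixed-population green peach aphids feed through a parafilm seal on the solution; mortality scored as % efficacy after 5 days (100% = all killed).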

Lucilia cuprina = Lucilia cuprina test; conditions: 48 h, L1 larvae, after 2 days, read-out: efficacy (kill in %)
Summary of the method: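 About 20 L1 larvae were held on minced horsemeat treated with compound, which was formulated in DMSO and diluted with water. Percent kill was scored after 2 days.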

Phaedon cochleariae = Phaedon cochleariae spray test; conditions: foliar, 168 h, Chinese cabbage leaf discs, larvae, after 7 days, read-out: efficacy
Summary of the method: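 Compound dissolved in solvent and diluted with water containing 1000 ppm emulsifier to test concentrations. Efficacy read after 7 days as % beetle larvae killed (100% all killed, 0% none).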

Musca domestica = Musca domestica test; conditions: 48 h, adult houseflies, after 2 days, read-out: efficacy (kill in %)
Description: Musca domestica Test Solvent: dimethyl sulphoxide To produce a suitable preparation of active compound, 10 mg of active compound are mixed with 0.5 ml of dimethyl sulphoxide, and the concentrate is diluted with water to the desired concentration. Vessels containing a sponge treated with sugar solution and the active compound preparation of the desired concentration are populated with 10 adult houseflies (Musca domestica). After 2 days, the kill in % is determined. 100% means that all of the flies have been killed; 0% means that none of the flies have been killed.

Meloidogyne incognita = Meloidogyne incognita test; conditions: 336 h, lettuce, after 14 days, read-out: nematicidal efficacy (formation of galls)
Summary of the method: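 Active compound in acetone, diluted with water, added to sand-filled vessels with M. incognita eggs/larvae and lettuce seeds. After 14 days, efficacy scored by root gall formation: 100% = no galls, 0% = galls equal to untreated control.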

Myzus persicae [3] = test: Myzus persicae spray test (bell pepper plants); conditions: 144 h, after 6 days, read-out: efficacy (kill in %)
Description: Myzus persicae—Spray Test Solvent: 14 parts by weight of dimethylformamide Emulsifier: alkylaryl polyglycol ether To produce a suitable preparation of active compound, 1 part by weight of active compound is dissolved using the specified parts by weight of solvent and made up with water containing an emulsifier concentration of 1000 ppm until the desired concentration is attained. To produce further test concentrations, the formulation is diluted with emulsifier-containing water. If the addition of ammonium salts or/and penetrants is required, these are each added in a concentration of 1000 ppm to the formulation solution. Bell pepper plants (Capsicum annuum) severely infested with the green peach aphid (Myzus persicae) are treated by spraying with the active compound preparation in the desired concentration. After 6 days, the kill in % is determined. 100% means that all of the aphids have been killed; 0% means that none of the aphids have been killed.

Aphis gossypii = Aphis gossypii spray test; conditions: 100 ppm, cotton plants, after 6 days
Description: Aphis gossypii—Spray Test Solvent: 14 parts by weight of dimethylformamide Emulsifier: alkylaryl polyglycol ether To produce a suitable preparation of active compound, 1 part by weight of active compound is dissolved using the specified parts by weight of solvent and made up with water containing an emulsifier concentration of 1000 ppm until the desired concentration is attained. To produce further test concentrations, the formulation is diluted with emulsifier-containing water. If the addition of ammonium salts or/and penetrants is required, these are each added in a concentration of 1000 ppm to the formulation solution. Cotton plants (Gossypium hirsutum) which are heavily infested by the cotton aphid (Aphis gossypii) are sprayed with an active compound preparation of the desired concentration. After 6 days, the kill in % is determined. 100% means that all the aphids have been killed; 0% means that no aphids have been killed.

Tetranychus urticae = Tetranychus urticae spray test, OP-resistant; conditions: foliar, 144 h, bean leaf discs, after 6 days, read-out: efficacy
Description: Tetranychus urticae—Spray Test, OP-Resistant
To produce a suitable preparation of active compound, 1 part by weight of active compound is dissolved using the specified parts by weight of solvent and made up with water containing an emulsifier concentration of 1000 ppm until the desired concentration is attained. To produce further test concentrations, the formulation is diluted with emulsifier-containing water.
Discs of bean leaves (Phaseolus vulgaris) infested with all stages of the greenhouse red spider mite (Tetranychus urticae) are sprayed with an active compound preparation of the desired concentration.
After 6 days, the efficacy in % is determined. 100% means that all the spider mites have been killed; 0% means that no spider mites have been killed.

Structure (SMILES) | pest or weed control at 500 g/ha (Myzus persicae [1]) | pest or weed control at 20 ppm (Myzus persicae [2]) | pest or weed control at 100 ppm (Lucilia cuprina) | pest or weed control at 500 g/ha (Phaedon cochleariae) | pest or weed control at 100 ppm (Musca domestica) | pest or weed control at 20 ppm (Meloidogyne incognita) | pest or weed control at 100 ppm (Myzus persicae [3]) | efficacy (kill in %) (Aphis gossypii) | pest or weed control at 500 g/ha (Tetranychus urticae) | pest or weed control at 20 ppm (Myzus persicae [3]; 20 ppm)
COc1ccc(Cl)c(S(=O)(=O)NC(=O)c2cn(C)c(-c3c(F)cccc3Cl)n2)c1 [Example 107] | 100% | 100% | 100% | 100% | 100% |  |  |  |  | 
Cc1ccc(C)c(S(=O)(=O)NC(=O)c2cn(C)c(-c3c(F)cccc3F)n2)c1 [Example 394] | 100% | 100% | 95% | 100% | 100% | 90% |  |  |  | 
CCn1cc(C(=O)NS(=O)(=O)c2cc(OC)ccc2Cl)nc1-c1ccccc1Cl [Example 68] |  | 100% | 100% |  | 80% | 90% | 100% |  |  | 
Cc1c(C(=O)NS(=O)(=O)c2ccccc2Cl)nc(-c2c(F)cccc2F)n1C [Example 194] |  | 100% |  |  |  | 90% |  | 100% |  | 
Cn1cc(C(=O)NS(=O)(=O)c2ccc(Cl)cc2Cl)nc1-c1ccccc1Cl [Example 231] | 90% |  | 100% | 100% | 100% | 100% |  |  |  | 
COc1ccccc1S(=O)(=O)NC(=O)c1cn(C)c(-c2ncccc2F)n1 [Example 538] |  | 100% |  |  |  | 90% | 100% |  |  | 
CCn1c(C(=O)NS(=O)(=O)c2ccccc2Br)nc(-c2c(F)cccc2F)c1C [Example 415] |  | 100% |  |  |  | 100% | 100% |  |  | 
Cc1[nH]c(-c2ccc(F)cc2F)nc1C(=O)NS(=O)(=O)c1ccccc1Cl [Example 616] |  | 100% |  |  |  | 100% | 97% |  |  | 
CCc1cccc(C(F)(F)F)c1S(=O)(=O)NC(=O)c1cn(C)c(-c2c(F)cccc2F)n1 [Example 337] | 90% | 100% |  | 100% | 80% | 90% |  |  |  | 
Cc1ccccc1S(=O)(=O)NC(=O)c1cn(C)c(-c2ccc(Cl)c(Cl)c2)n1 [Example 536] |  | 100% |  |  |  | 90% | 80% |  |  | 
Cc1c(C(=O)NS(=O)(=O)c2ccccc2Cl)nc(-c2ccccc2Cl)n1C [Example 103] |  | 100% |  |  |  | 100% |  | 98% |  | 
Cn1cc(C(=O)NS(=O)(=O)c2ccc(Cl)cc2Cl)nc1-c1c(F)cccc1F [Example 174] | 100% | 100% |  | 83% | 90% | 100% |  |  |  | 
Cc1nc(C)c(S(=O)(=O)NC(=O)c2cn(C)c(-c3c(F)cccc3F)n2)s1 [Example 347] |  | 90% |  |  |  |  | 90% |  |  | 
Cc1cccc(Cl)c1S(=O)(=O)NC(=O)c1cn(C)c(-c2ncccc2Cl)n1 [Example 576] | 100% | 100% | 100% | 100% | 100% |  |  |  |  | 
COc1ccc(Br)c(S(=O)(=O)NC(=O)c2cn(C)c(-c3c(F)cccc3Cl)n2)c1 [Example 153] | 100% | 100% |  | 100% | 80% | 90% |  |  |  | 
Cc1c(C(=O)NS(=O)(=O)c2ccccc2Br)nc(-c2c(F)cccc2F)n1C [Example 195] |  | 100% |  | 100% |  | 90% |  |  | 90% | 80%
Cc1[nH]c(C(=O)NS(=O)(=O)c2ccccc2Br)nc1-c1c(F)cccc1F [Example 146] |  |  |  |  |  |  | 90% |  |  | 
Cc1[nH]c(-c2ccc(Cl)c(Cl)c2)nc1C(=O)NS(=O)(=O)C(C)C [Example 237] |  | 100% |  |  |  |  | 90% |  |  | 
Cn1cc(C(=O)NS(=O)(=O)Cc2ccccc2)nc1-c1ccccc1Cl [Example 60] |  | 100% |  |  |  | 100% | 85% |  |  | 
Cc1ccccc1S(=O)(=O)NC(=O)c1cn(C)c(-c2cccc(F)c2F)n1 [Example 518] |  | 100% |  |  |  | 90% | 95% |  |  | 
Cc1cccc(C)c1S(=O)(=O)NC(=O)c1cn(C)c(-c2c(F)cccc2F)n1 [Example 186] | 100% | 100% | 100% | 100% | 85% | 90% |  |  |  | 
Cc1ccccc1S(=O)(=O)NC(=O)c1cn(C)c(-c2ccccc2-c2ccccc2)n1 [Example 533] |  | 100% |  |  |  |  | 90% |  |  | 
Cc1ccc(Cl)cc1S(=O)(=O)NC(=O)c1cn(C)c(-c2c(F)cccc2F)n1 [Example 172] | 90% | 100% |  | 100% | 90% | 100% |  |  |  | 
Cn1cc(C(=O)NS(=O)(=O)c2ccccc2Br)nc1-c1c(F)cccc1Cl [Example 152] | 90% | 100% |  | 100% | 80% | 100% |  |  |  | 
Cn1cc(C(=O)NS(=O)(=O)c2cc(C(F)(F)F)ccc2Cl)nc1-c1ccccc1Cl [Example 52] | 90% | 100% |  |  | 80% | 90% |  |  |  | 
Cc1ccccc1S(=O)(=O)NC(=O)c1cn(C)c(-c2c(C)cccc2C)n1 [Example 478] |  | 100% |  |  |  | 90% | 99% |  |  | 
CCc1ccccc1S(=O)(=O)NC(=O)c1cn(C)c(-c2c(F)cccc2F)n1 [Example 185] | 100% | 100% |  |  | 80% | 90% |  |  |  | 
Cc1ccc(C)c(S(=O)(=O)NC(=O)c2cn(C)c(-c3cccc4ccccc34)n2)c1 [Example 502] |  | 100% |  | 100% |  | 100% |  | 95% |  | 
